According to patent US4080442A, “Disaccharide derivatives used in the treatment of hepatic diseases” (Meito Sangyo Kabushiki Kaisha, priority 1975, dated 1978):

System: experimental hepatitis induced by D-galactosamin
Test: Conjoint use of glutathione in experimental hepatitis induced by D-galactosamin
Assay type: in vivo, female Wistar rats
Conditions: GSH 5 mg/rat, GSSH 5 mg/rat, AS 75 mg/rat, mixtures: GSH or GSSH 5 mg/rat + AS 75 mg/rat, average value ± S.E.
Method: Groups each of 10 female Wistar rats of 100 - 120 gram body weight put on a fast of 2 hours prior to the experiment were used. […] One hour after these administrations, all of the groups were administered with D-galactosamin. The administration of the D-galactosamin was performed in the following manner. […] After completion of this administration, the fasted state was continued. Twenty-two hours after the administration of the D-galactosaminhydrochloride, blood was taken from the abdominal aorta and measured for the GOT, GPT, bilirubin and blood glucose contained in the blood plasma. The GOT and GPT were measured by the Reitman-Frankel Method, the bilirubin by the Evelyn-Malloy Method and the blood glucose by the […].
The effects obtained by using injection mixtures of either a reduced type glutathione or an oxidized type glutathione and a sucrose derivative obtained by the method of preparing a pharmaceutical composition of the hereinafter-given Example 11 in treating animals suffering from hepatitis induced by D-galactosamin were tested by operating as in I., above.

Compound: N[C@@H](CCC(=O)N[C@@H](CS)C(=O)NCC(=O)O)C(=O)O [GSH, Reduced type glutathione]
- GPT (control 1830±432): 1660±472 Karman U.
- GOT (control 2748±490): 2510±510 Karmen U.
